Some test systems named below: A549; HCC 2998; MCF7; KM12; OVCAR-8; HT-29; HOP-92; NCI-H226; SF-295; HL-60; NCI/ADR-RES; OVCAR-3; RXF 393; SK-MEL-5; TK-10; Malme-3M; BT-549; CAKI-1.
Test in all cases: DTP human tumour cell line panel, 48 h

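Method: 48-hour compound exposure of cells in 96-well plates, five concentrations, linear interpolation of endpoints. GI50 = concentration required for 50% inhibition of growth.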 The source made the active and inactive calls. No stated cut-off is given here; in the data, active = GI50 up to about 1.1 µM and inactive = higher.

With `COc1cc(/C=C2\CCc3cc(OC)c(OC)cc3C2=O)cc(OC)c1`, the GI50 in the assay with A549 was 5.2 µM (inactive); in the assay with HCC 2998, 5.3 µM (inactive); in the assay on MCF7, 4.2 µM (inactive); in the assay on KM12, 4.88 µM (inactive); with OVCAR-8, 9.02 µM (inactive); in the assay with HT-29, 3.49 µM (inactive). The GI50 with HOP-92 was 24.3 µM (inactive); in the assay on NCI-H226, 5.04 µM (inactive); with SF-295 it was 3.92 µM (inactive); in the assay on HL-60 it was 3.51 µM (inactive); with NCI/ADR-RES it was 3.15 µM (inactive); with OVCAR-3, 4.47 µM (inactive). Also, the GI50 in the assay on RXF 393 was 4.9 µM (inactive); with SK-MEL-5, 3.87 µM (inactive); with TK-10, 24 µM (inactive); with Malme-3M, 10 µM (inactive); in the assay on BT-549, 10.4 µM (inactive); in the assay on CAKI-1 it was 8.67 µM (inactive).

Consider `CS(=O)(=O)N1CC(CCl)c2ccc(NO)cc21` (stereo unspecified), for which the GI50 is 35.2 µM (inactive) in the assay with A549; 14.4 µM (inactive) in the assay on HCC 2998; 8.3 µM (inactive) in the assay on MCF7; 14.6 µM (inactive) in the assay on KM12; 12.9 µM (inactive) in the assay on OVCAR-8; 14.3 µM (inactive) in the assay with HT-29. For the same compound, the GI50 is 14.4 µM (inactive) in the assay with HOP-92; 30 µM (inactive) in the assay with NCI-H226; 20 µM (inactive) in the assay with SF-295; 1.96 µM (inactive) in the assay on HL-60; 4.66 µM (inactive) in the assay on NCI/ADR-RES; 11.7 µM (inactive) in the assay with OVCAR-3. Moreover, the GI50 is 3.37 µM (inactive) in the assay with RXF 393; 12.3 µM (inactive) with SK-MEL-5; 21.3 µM (inactive) in the assay with TK-10; 19.1 µM (inactive) in the assay on Malme-3M; 12 µM (inactive) in the assay with BT-549; 12.6 µM (inactive) in the assay on CAKI-1.

`COc1cccc(/N=C/c2cc(OC)c(OC)c(OC)c2)c1`: the GI50 in the assay on A549 is > 100 µM (inactive); in the assay with HCC 2998, > 88.9 µM (inactive); in the assay on MCF7, 56.9 µM (inactive); with KM12, 33.2 µM (inactive); with OVCAR-8, > 100 µM (inactive); in the assay with HT-29 it was 91.2 µM (inactive). In addition, the GI50 in the assay with HOP-92 is > 100 µM (inactive); in the assay on NCI-H226, > 54.8 µM (inactive); in the assay on SF-295, 69.8 µM (inactive); with HL-60, > 100 µM (inactive); in the assay with NCI/ADR-RES it was > 100 µM (inactive); with OVCAR-3 it was 1 µM (active). The GI50 in the assay on RXF 393 is 78.7 µM (inactive); in the assay on SK-MEL-5, 16.8 µM (inactive); with TK-10, > 100 µM (inactive); in the assay with Malme-3M, > 100 µM (inactive); in the assay with BT-549, 72.6 µM (inactive); with CAKI-1 it was > 100 µM (inactive).

Take `COC(=O)c1c([N+](=O)[O-])ncn1[C@H]1OC[C@@H](OC(C)=O)[C@@H](OC(C)=O)[C@@H]1OC(C)=O`: the GI50 in the assay with A549, in the assay with HCC 2998, in the assay with MCF7, in the assay with KM12, in the assay on OVCAR-8 and in the assay with HT-29 was > 100 µM (inactive) each time. In addition, the GI50 in the assay on HOP-92, in the assay on NCI-H226, in the assay on SF-295, in the assay with HL-60, in the assay on NCI/ADR-RES and in the assay with OVCAR-3 was > 100 µM (inactive) in each case. The GI50 in the assay on RXF 393, in the assay with TK-10, with Malme-3M, in the assay on BT-549 and in the assay on CAKI-1 was > 100 µM (inactive) throughout.

As for `C/C(=N/NC(=S)Nc1cccc(C)c1)c1ccccn1`, the GI50 in the assay on A549 was 1.87 µM (inactive); with HCC 2998, 1.91 µM (inactive); in the assay with MCF7 it was < 0.01 µM (active); in the assay with KM12, 0.141 µM (active); with OVCAR-8 it was < 0.0183 µM (active); in the assay on HT-29, < 0.01 µM (active). The GI50 in the assay with HOP-92 is 1.17 µM (inactive); in the assay with NCI-H226, 0.0582 µM (active); in the assay on SF-295 it was 0.296 µM (active); in the assay on HL-60 it was < 0.01 µM (active); with NCI/ADR-RES it was < 0.01 µM (active); with OVCAR-3 it was < 0.01 µM (active). Further, the GI50 is 1.12 µM (inactive) in the assay with RXF 393; 0.061 µM (active) with SK-MEL-5; 0.274 µM (active) in the assay with TK-10; 0.319 µM (active) in the assay on Malme-3M; 3.87 µM (inactive) in the assay on BT-549; < 0.0532 µM (active) with CAKI-1.

Consider `CC(=N\N=C\c1ccccn1)/C(C)=N/N=C(C)/C(C)=N/N=C/c1ccccn1`, for which the GI50 with A549, in the assay with HCC 2998, with MCF7, in the assay with KM12, with OVCAR-8 and in the assay with HT-29 was > 100 µM (inactive) throughout. Besides, the GI50 with HOP-92, in the assay with NCI-H226, in the assay on SF-295, in the assay with HL-60, with NCI/ADR-RES and in the assay on OVCAR-3 was > 100 µM (inactive) each time. Also, the GI50 in the assay with RXF 393, with SK-MEL-5, with TK-10, in the assay with Malme-3M, in the assay with BT-549 and in the assay on CAKI-1 was > 100 µM (inactive) each time.

In the case of `Cc1cnc2c(c1)C(=O)C1=C(C2=O)C2OC(=O)CC2OC1(C)C` (stereo unspecified), the GI50 in the assay on A549 was 1.53 µM (inactive); in the assay with HCC 2998, 0.248 µM (active); in the assay on MCF7 it was 0.0533 µM (active); in the assay on KM12 it was 0.431 µM (active); with OVCAR-8 it was 0.29 µM (active); in the assay with HT-29, 0.0588 µM (active). Besides, the GI50 was 0.121 µM (active) in the assay with HOP-92; 0.979 µM (active) in the assay with NCI-H226; 1.25 µM (inactive) in the assay on SF-295; 0.0148 µM (active) with HL-60; 0.625 µM (active) with NCI/ADR-RES; < 0.01 µM (active) in the assay on OVCAR-3. Besides, the GI50 with RXF 393 was 0.205 µM (active); with SK-MEL-5, 0.317 µM (active); with TK-10 it was 0.735 µM (active); in the assay on Malme-3M it was 0.0736 µM (active); in the assay on BT-549 it was 0.185 µM (active); with CAKI-1 it was 0.12 µM (active).

In the case of `CC1(C)N=C2C(=O)c3c([nH]c4ccccc34)[C@]3(C)CCC1CC23` (stereo partly specified), the GI50 in the assay on A549, in the assay with HCC 2998, with MCF7, with KM12, with OVCAR-8 and with HT-29 was > 6.25 µM (inactive) in each case. Moreover, the GI50 in the assay on HOP-92, in the assay with NCI-H226, with SF-295, in the assay on HL-60, in the assay with NCI/ADR-RES and in the assay with OVCAR-3 was > 6.25 µM (inactive) throughout. Besides, the GI50 with RXF 393, with SK-MEL-5, in the assay on TK-10, with Malme-3M, in the assay with BT-549 and in the assay with CAKI-1 was > 6.25 µM (inactive) each time.

Consider `COC(=O)c1nc2c(C)c(O)c(O)c([C@H](C)CCC=C(C)C)c2o1`, for which the GI50 is 27.9 µM (inactive) with A549; 30.1 µM (inactive) in the assay with HCC 2998; 36.3 µM (inactive) in the assay with MCF7; 23.3 µM (inactive) in the assay with KM12; 38.5 µM (inactive) in the assay on OVCAR-8; 19.5 µM (inactive) in the assay with HT-29. Moreover, the GI50 with HOP-92 was 26.5 µM (inactive); with NCI-H226 it was 17.9 µM (inactive); with SF-295, 25 µM (inactive); with HL-60 it was 16.7 µM (inactive); with NCI/ADR-RES, 25.2 µM (inactive); in the assay with OVCAR-3, 26.5 µM (inactive). Besides, the GI50 in the assay with RXF 393 was 21.4 µM (inactive); with SK-MEL-5 it was 13 µM (inactive); in the assay on TK-10 it was 39 µM (inactive); in the assay on Malme-3M, 26.7 µM (inactive); in the assay with BT-549 it was 37.6 µM (inactive); with CAKI-1 it was 23.8 µM (inactive).

Turning to `C=C1C(=O)O[C@H]2[C@@H](O)[C@H](C)CCC/C(C)=C/CC[C@@]3(C)O[C@@H]3C[C@@H]12`, the GI50 in the assay with A549 was 20.5 µM (inactive); in the assay with HCC 2998, 13.2 µM (inactive); with MCF7, 7.18 µM (inactive); in the assay with KM12 it was 16.8 µM (inactive); in the assay with OVCAR-8, 4.38 µM (inactive); in the assay on HT-29, 5.45 µM (inactive). Further, the GI50 in the assay with HOP-92 is 2.59 µM (inactive); in the assay on NCI-H226 it was 1.53 µM (inactive); with SF-295, 18.1 µM (inactive); in the assay with HL-60 it was 2.47 µM (inactive); in the assay on NCI/ADR-RES, 6.43 µM (inactive); in the assay with OVCAR-3 it was 11.3 µM (inactive). Moreover, the GI50 in the assay with RXF 393 was 2.85 µM (inactive); in the assay with SK-MEL-5, 11.8 µM (inactive); with TK-10 it was 1.86 µM (inactive); in the assay on Malme-3M, 11.5 µM (inactive); with BT-549 it was 3.3 µM (inactive); in the assay on CAKI-1 it was 2.33 µM (inactive).

For the compound `CN(Cc1ccccc1)C(=S)S` [SODIUM BENZYL(METHYL)CARBAMODITHIOATE], the GI50 with A549 was 33.5 µM (inactive); in the assay with HCC 2998 it was > 100 µM (inactive); in the assay on MCF7, 45.5 µM (inactive); in the assay with KM12, 56.1 µM (inactive); in the assay on OVCAR-8, 33 µM (inactive); with HT-29, 37.5 µM (inactive). Further, the GI50 was 68.2 µM (inactive) in the assay with HOP-92; 98.6 µM (inactive) in the assay on NCI-H226; 34 µM (inactive) in the assay on SF-295; 26.4 µM (inactive) in the assay with HL-60; 38.1 µM (inactive) in the assay with NCI/ADR-RES; 32 µM (inactive) with OVCAR-3. The GI50 in the assay with RXF 393 was 54.5 µM (inactive); in the assay with SK-MEL-5, 48.3 µM (inactive); in the assay on Malme-3M, 38.7 µM (inactive); in the assay on BT-549, 77.4 µM (inactive); with CAKI-1, 37.4 µM (inactive).

The values are drawn from ChEMBL document CHEMBL1201862, “PubChem BioAssay data set” (2004).
